Measured values taken from US20090149536A1, “4-OXO-(ISO)TRETINOIN FOR THE TOPICAL TREATMENT OF SEVERE DERMATOLOGICAL DISORDERS” (priority 2005, published 2009).
Where two headings read alike, the source gives them in different places. Each block holds one compound with its values, some of them ahead of it.

Experiments:
skin [1] = conditions: in human, applied topically as cream; cited from earlier work
[2] = test system: dermal lipogenese and sebum production; conditions: topical; cited from earlier work
[3] = in vivo
From the text: Suitable dosages are described herein below and can be determined by a doctor based on usual parameters like e.g. the weight and age of the patient, and the current status of the disease.

[4] = test system: severe acne on back or chest; conditions: 2 g cream, 0.5% 4-Oxotretinoin or up to 1% 4-Oxo-Isotretinoin, topical on back, 4 weeks minimum; Leeds grade 5 to 8
From the text: Fifteen male patients aged between 18 and 65 with severe acne on back or chest rated a grade of 5 to 8 according to the Leeds revised acne grading system (Journal of Dermatological Treatment (1989) 9, 215-220) are enrolled in a pilot study.
After completion of the treatment, the grade of the acne in the designated treatment area is once more determined and compared with the surrounding area of the skin.

lipogenesis in epidermis = test: study of lipogenesis in skin biopsies (14C-Dextrose integrated in epidermis lipids); type: in vivo, Fuzzy rats
Protocol: At the end of the treatment, animals were anaesthetized with Pentobarbital 70 mg/kg by IP route. For each rat, two biopsies of 3-mm of dorsal skin per treated region with test substances were collected. Each biopsy was weighed. Rats were sacrificed by inhalation of CO2.
The biopsies (from 175 to 466 mg) were incubated in 1 ml of KRB in presence of 5 μCi D-[U-^14C]-Dextrose/ml at 37° C., 5% CO2 for 3 h.
After incubation, biopsies were rinsed 3 times with 3 ml of KRB. Dermis and epidermis were separated according to method described by Levang A. K. et al..
So, skin biopsies were soaked in water at 60° C. for 45 s. The skin was then removed and blotted dry and pinned with the dermal skin side down. The epidermis and dermis were separated by scrapping and epidermis was weighted.
Each fraction (100 mg) epidermis was cut into small fragments by using scalpels. Fragments were homogenized with chloroform:methanol [(2:1; v:v), Ref. C2432, batch No. 055K0070, Sigma, France: Ref M3641-1L, batch No. 104K3641, Sigma, France] according to the ratio 50 mg of tissue/ml of chloroform:methanol (2:1; v:v) with Potter-Elvehjem type of homogenizer (Ref. 48780, Dutscher, France).
Then, the mixture was washed with 0.2 volume of water. Two phases were separated by centrifugation during 20 min at 800 g.
The rate of lipid extraction was calculated as following: • R=(dpm[4-14C]Cholesterol after extraction)/dpm[4-14C]Cholesterol before extraction×100
The lipogenesis was evaluated as the number of dpm/100 mg tissue. • Lipogenesis=cpm×R×AS (D-[U-^14C]-Dextrose)
At the end of treatment (D25), rats were anaesthetized, skin biopsies were collected and lipogenesis was assessed. Briefly, biopsies were incubated with ^14C-Dextrose in Krebs-Ringer buffer for 3 h at 37° C., 5% CO2. After separation of dermis and epidermis, total lipids were extracted from epidermis. Radioactivity was counted using a β-counter.

sebaceous gland size = test: study of sebaceous gland size in skin biopsies (histology); type: in vivo, Fuzzy rats; conditions: D25
Protocol: The other biopsies were transferred in fixative solution of 4% Paraformaldehyde Fixative (PAF; Ref. 1.04003.5000, Merck, France) solution for further paraffin-embedding and sebaceous gland size analysis.
The size of sebaceous gland was evaluated by histological study of biopsies.
Biopsies fixed in PAF 4% were paraffin-embedded by the ASP 300 (Leica) automat according to the following procedure:
Histological sections of biopsies were realized (5 sections/biopsy).
Each one was colored by Hemalun/Eosin/Safran OTTIX coloration method according to the following protocol:
A microscopic observation by using a CKX41 light microscope (Olympus, France) was performed. Each sebaceous gland within 1 section/biopsy was numerized with a digital camera (Pwershot A80, Canon) and was measured by using ImageJ software 1.32j.
Each sebaceous gland within 1 section/biopsy was numerized with a digital camera (Pwershot A80, Canon) and was measured by using ImageJ software 1.32j. The mean of gland size was calculated for each group.
At the end of treatment (D25; Oct. 13, 2006), rats were anaesthetized, skin biopsies were collected and embedded in paraffin before being stained by an hematoxylin/eosin solution. Biopsies were then observed and numerized by using a microscope. All sebaceous glands within a biopsy were measured.

skin [5] = test system: skin
From the text: Observations and examinations included clinical monitoring of skin reaction and histopathological examination of excised skin specimen at study end.

[6] = topical 1.5% 4-oxo-tretinoin or 2% 4-oxo-isotretinoin, n=5 per compound, serial samples
sebum excretion rate = conditions: cited from earlier work
hairless ("fuzzy") rats = conditions: nontoxic dosages (no body weight loss), cited from earlier work
hairless mice = conditions: nontoxic dosages (no body weight loss); cited from earlier work
severe acne = conditions: oral; cited from earlier work
[7] = test system: sebaceous gland size and sebum production; conditions: topical versus oral; cited from earlier work
[8] = 0.1% topical, 0.025 mg/2 cm^2, (Q1DX5)×4 weeks, D25
[9] = 0.5% topical, 0.125 mg/2 cm^2, (Q1DX5)×4 weeks, D25
[10] = 0.1% topical, 0.025 mg/2 cm^2, (Q1DX5)×4 weeks
[11] = 0.2% topical, 0.050 mg/2 cm^2, (Q1DX5)×4 weeks, D25
[12] = 10 mg/kg PO, (Q1DX5)×4 weeks, D25

SMILES: CC1=C(/C=C/C(C)=C/C=C/C(C)=C/C(=O)O)C(C)(C)CCC1 [tretinoin, all-trans retinoic acid]
strength of topical cream that showed local irritation (skin [1]): 0.05% | influence on the dermal lipogenese and sebum production [2]: Neither topical tretinoin nor topical isotretinoin have been found to have an influence

endogenous plasma level [3]: about 4.85±3.89 ng/mL
SMILES: CC1=C(/C=C/C(C)=C/C=C/C(C)=C\C(=O)O)C(C)(C)CCC1=O [4-oxo-isotretinoin, 4-oxo-13-cis-retinoic acid]
clinical rating of the acne in the treated area compared with untreated skin [4]: reduces the clinical rating of the acne in the treated area significantly | Mean DPM ± SD, Epidermis (100 mg) (lipogenesis in epidermis; [8]): 5499 ± 2599 DPM | Mean pmole 14C-dextrose ± SD integrated in 100 mg of tissue (epidermis) (lipogenesis in epidermis; [8]): 6.95±3.31 pmole of 14C-Dextrose/100 mg | lipogenesis in epidermis, percent of control group (lipogenesis in epidermis; [8]): 71% | Mean pmole 14C-dextrose ± SD integrated in 100 mg of tissue (epidermis) (lipogenesis in epidermis; 0.1% topical, 0.025 mg/2 cm^2, (Q1DX5)×4 weeks, D25, listed as 4-Oxo-isotretinoin): 6.95 ± 3.31 pmole of 14C-Dextrose/100 mg | Mean DPM ± SD, Epidermis (100 mg) (lipogenesis in epidermis; [9]): 6524 ± 1792 DPM | Mean pmole 14C-dextrose ± SD integrated in 100 mg of tissue (epidermis) (lipogenesis in epidermis; [9]): 8.25±2.28 pmole of 14C-Dextrose/100 mg | lipogenesis in epidermis, percent of control group (lipogenesis in epidermis; [9]): 84% | Mean pmole 14C-dextrose ± SD integrated in 100 mg of tissue (epidermis) (lipogenesis in epidermis; 0.5% topical, 0.125 mg/2 cm^2, (Q1DX5)×4 weeks, D25, listed as 4-Oxo-isotretinoin): 8.25 ± 2.28 pmole of 14C-Dextrose/100 mg | mean sebaceous gland size, Mean ± SD (sebaceous gland size; [10]): 24988±15931 pixel^2 | sebaceous gland size, percent of control group (sebaceous gland size; [10]): (82%) | mean sebaceous gland size, Mean ± SD (sebaceous gland size; 0.1% topical, 0.025 mg/2 cm^2, (Q1DX5)×4 weeks, listed as 4-Oxo-isotretinoin): 24998 ± 15931 pixel^2 | skin irritation (clinical monitoring of skin reaction) (skin [5]; any concentration (0.1, 0.5, 1 or 2%), once daily, 5 days per week, 4 weeks, acetone/ethanol (1:1)): No signs of skin irritation | inter-conversion of the 4-oxo isomers: skin and strip levels of both isomers [6]: skin exposure to both 4-oxo-isotretinoin and 4-oxo-tretinoin could be demonstrated | sebum excretion rate (sebum excretion rate; applied orally): reduces the sebum excretion rate | pharmacological activity relative to parent drug isotretinoin (sebum excretion rate; in vivo): only half as active pharmacologically

endogenous plasma level [3]: about 9.88±7.57 ng/mL
SMILES: CC1=C(/C=C/C(C)=C/C=C/C(C)=C/C(=O)O)C(C)(C)CCC1=O [4-oxo-tretinoin, 4-oxo-all-trans-retinoic acid]
clinical rating of the acne in the treated area compared with untreated skin [4]: reduces the clinical rating of the acne in the treated area significantly | Mean DPM ± SD, Epidermis (100 mg) (lipogenesis in epidermis; [8]): 7024 ± 1970 DPM | Mean pmole 14C-dextrose ± SD integrated in 100 mg of tissue (epidermis) (lipogenesis in epidermis; [8]): 9.10±5.23 pmole of 14C-Dextrose/100 mg | lipogenesis in epidermis, percent of control group (lipogenesis in epidermis; [8]): 91% | Mean pmole 14C-dextrose ± SD integrated in 100 mg of tissue (epidermis) (lipogenesis in epidermis; 0.1% topical, 0.025 mg/2 cm^2, (Q1DX5)×4 weeks, D25, listed as 4-Oxo-tretinoin): 8.89 ± 2.51 pmole of 14C-Dextrose/100 mg | Mean DPM ± SD, Epidermis (100 mg) (lipogenesis in epidermis; [11]): 4993 ± 2219 DPM | Mean pmole 14C-dextrose ± SD integrated in 100 mg of tissue (epidermis) (lipogenesis in epidermis; [11]): 6.30±2.80 pmole of 14C-Dextrose/100 mg | lipogenesis in epidermis, percent of control group (lipogenesis in epidermis; [11]): 64% | Mean pmole 14C-dextrose ± SD integrated in 100 mg of tissue (epidermis) (lipogenesis in epidermis; 0.2% topical, 0.050 mg/2 cm^2, (Q1DX5)×4 weeks, D25, listed as 4-Oxo-tretinoin): 6.30 ± 2.80 pmole of 14C-Dextrose/100 mg | histopathological examination of treated skin areas (skin [5]; concentration-dependent, once daily, 5 days per week, 4 weeks): concentration-dependent hyperkeratosis, acanthosis and hypertrophy/hyperplasia of sebaceous glands | skin irritation (clinical: reddening (erythema) and occasional scaling) (skin [5]; concentrations ≧0.5% (tested 0.1 to 1.5%), once daily, 5 days per week, 4 weeks): dose-dependent slight to moderate skin irritation | histopathological examination of treated skin areas: necrosis (skin [5]; concentrations ≧1%): occasional necrosis | inter-conversion of the 4-oxo isomers: skin and strip levels of both isomers [6]: skin exposure to both 4-oxo-isotretinoin and 4-oxo-tretinoin could be demonstrated

SMILES: CC1=C(/C=C/C(C)=C/C=C/C(C)=C\C(=O)O)C(C)(C)CCC1 [13-cis-RA, 13-cis retinoic acid, reference compound]
Mean DPM ± SD, Epidermis (100 mg) (lipogenesis in epidermis; [12]): 5188 ± 1875 DPM | Mean pmole 14C-dextrose ± SD integrated in 100 mg of tissue (epidermis) (lipogenesis in epidermis; [12]): 6.55±2.38 pmole of 14C-Dextrose/100 mg | change of lipogenesis in epidermis versus vehicle group (lipogenesis in epidermis; 10 mg/kg PO, (Q1DX5)×4 weeks, p<0.05): −33% | activity at 10 mg/kg (lipogenesis in epidermis; Rattus norvegicus, 672 h, 10 mg/kg PO, (Q1DX5)×4 weeks, D25, read-out: lipogenesis in epidermis, percent of control group): 67% | mean sebaceous gland size, Mean ± SD (sebaceous gland size; 10 mg/kg PO, (Q1DX5)×4 weeks): 25493±17065 pixel^2 | activity at 10 mg/kg (sebaceous gland size; Rattus norvegicus, 672 h, 10 mg/kg PO, (Q1DX5)×4 weeks, read-out: sebaceous gland size, percent of control group): 83.8% | strength of topical cream that showed local irritation (skin [1]): 0.1% | sebosuppressive effect after topical administration (hairless ("fuzzy") rats; listed as 13-cis retinoic acid): no detectable sebosuppressive effects | sebosuppressive effect after topical administration (hairless ("fuzzy") rats; listed as 13-cis-retinoic acid): substantially no detectable sebosuppressive activity | sebosuppressive effect after topical administration (hairless mice): no detectable sebosuppressive effects | patients with severe acne reaching long-term remission (severe acne): 80% | reduction of effectiveness in reducing sebaceous gland size and suppressing sebum production, topical compared to oral administration [7]: up to 90% | influence on the dermal lipogenese and sebum production [2]: Neither topical tretinoin nor topical isotretinoin have been found to have an influence
